Test results from patent US9321748B2, “Aminopyridine derived compounds as LRRK2 inhibitors” (H. Lundbeck A/S, priority 2013, dated 2016).
pIC50: −log10 of the molar value.

Columns and labels:
[1] = molecular target: LRRK2 G2019S (Homo sapiens (Human), UniProt Q5S007, G2019S); experiment: LRRK2 G2019S kinase activity assay (LanthaScreen TR-FRET); format: biochemical; settings: 250 pM LRRK2 G2019S kinase, 1.3 mM ATP, 0.4 μM fluorescein-LRRKtide
Protocol: (§1) LRRK2 Wild-Type and G2019S Kinase Activity Assay.
(§2) LRRK2 kinase activity is measured using a LanthaScreen kinase activity assay available from Invitrogen (Life Technologies Corporation). […] The phosphorylated peptide is recognized by a terbium-labelled phospho-specific anti-LRRKtide antibody and, subsequently, the phosphorylated LRRKtide can be quantified by the extent of TR-FRET between the terbium donor and fluorescein acceptor.
(§3) The LRRK2 kinase is obtained from Invitrogen (Life Technologies Corporation) and comprises residue 970 to 2527 of the full length human wildtype LRRK2 kinase or a similar sequence with the G2019S mutation. As discussed above, this mutation increases the kinase activity relative to the wild type. The kinase reactions are performed in a […] volume in 384-well plates. The kinase reaction buffer consists of 50 mM Tris pH 8.5, 0.01% BRIJ-35, 10 mM MgCl2, 1 mM EGTA, and 2 mM DTT.
(§4) The reaction mixture (20 μl total volume) is incubated for 2 hours at 30° C. before the reaction is terminated by addition of 10 mM EDTA and 1 nM terbium-labelled anti-phospho-LRRKtide antibody (final volume […]). The mixture is further incubated for 30 minutes at RT. TR-FRET is measured by excitation of the terbium-donor with 340 nm light and subsequent (delay time 100 μs) measurement of terbium and fluorescein emission at 495 nm and 520 nm, respectively, over a time window of 1000 μs. The measurement is repeated 10 times for fluorescein and 10 times for terbium emission with a 2000 μs time window between repeats. TR-FRET measurements are performed on a […] plate. The TR-FRET signal is calculated as the emission-ratio at 520 nm over 495 nm.
(§5) Test compound potency (IC50) was estimated by nonlinear regression using the sigmoidal dose-response (variable slope) using Xlfit 4 (IDBS, Guildford, Surrey, UK, model 205). y=(A+((B−A)/(1+((C/x)^D)))) where y is the normalized TR-TRET ratio measurement for a given concentration of test compound, x is the concentration of test compound, A is the estimated efficacy (% inhibition) at infinite compound dilution, and B is the maximal efficacy (% inhibition). C is the IC50 value and D is the Hill slope coefficient. IC50 estimates were obtained from independent experiment and the logarithmic average was calculated.

[2] = molecular target: LRRK2 WT (Homo sapiens (Human), UniProt Q5S007); experiment: LRRK2 wild-type kinase activity assay (LanthaScreen TR-FRET); format: biochemical; settings: 1 nM LRRK2 WT kinase, 1.3 mM ATP, 0.4 μM fluorescein-LRRKtide
Chain of LRRK2 WT (Q5S007 970-2527): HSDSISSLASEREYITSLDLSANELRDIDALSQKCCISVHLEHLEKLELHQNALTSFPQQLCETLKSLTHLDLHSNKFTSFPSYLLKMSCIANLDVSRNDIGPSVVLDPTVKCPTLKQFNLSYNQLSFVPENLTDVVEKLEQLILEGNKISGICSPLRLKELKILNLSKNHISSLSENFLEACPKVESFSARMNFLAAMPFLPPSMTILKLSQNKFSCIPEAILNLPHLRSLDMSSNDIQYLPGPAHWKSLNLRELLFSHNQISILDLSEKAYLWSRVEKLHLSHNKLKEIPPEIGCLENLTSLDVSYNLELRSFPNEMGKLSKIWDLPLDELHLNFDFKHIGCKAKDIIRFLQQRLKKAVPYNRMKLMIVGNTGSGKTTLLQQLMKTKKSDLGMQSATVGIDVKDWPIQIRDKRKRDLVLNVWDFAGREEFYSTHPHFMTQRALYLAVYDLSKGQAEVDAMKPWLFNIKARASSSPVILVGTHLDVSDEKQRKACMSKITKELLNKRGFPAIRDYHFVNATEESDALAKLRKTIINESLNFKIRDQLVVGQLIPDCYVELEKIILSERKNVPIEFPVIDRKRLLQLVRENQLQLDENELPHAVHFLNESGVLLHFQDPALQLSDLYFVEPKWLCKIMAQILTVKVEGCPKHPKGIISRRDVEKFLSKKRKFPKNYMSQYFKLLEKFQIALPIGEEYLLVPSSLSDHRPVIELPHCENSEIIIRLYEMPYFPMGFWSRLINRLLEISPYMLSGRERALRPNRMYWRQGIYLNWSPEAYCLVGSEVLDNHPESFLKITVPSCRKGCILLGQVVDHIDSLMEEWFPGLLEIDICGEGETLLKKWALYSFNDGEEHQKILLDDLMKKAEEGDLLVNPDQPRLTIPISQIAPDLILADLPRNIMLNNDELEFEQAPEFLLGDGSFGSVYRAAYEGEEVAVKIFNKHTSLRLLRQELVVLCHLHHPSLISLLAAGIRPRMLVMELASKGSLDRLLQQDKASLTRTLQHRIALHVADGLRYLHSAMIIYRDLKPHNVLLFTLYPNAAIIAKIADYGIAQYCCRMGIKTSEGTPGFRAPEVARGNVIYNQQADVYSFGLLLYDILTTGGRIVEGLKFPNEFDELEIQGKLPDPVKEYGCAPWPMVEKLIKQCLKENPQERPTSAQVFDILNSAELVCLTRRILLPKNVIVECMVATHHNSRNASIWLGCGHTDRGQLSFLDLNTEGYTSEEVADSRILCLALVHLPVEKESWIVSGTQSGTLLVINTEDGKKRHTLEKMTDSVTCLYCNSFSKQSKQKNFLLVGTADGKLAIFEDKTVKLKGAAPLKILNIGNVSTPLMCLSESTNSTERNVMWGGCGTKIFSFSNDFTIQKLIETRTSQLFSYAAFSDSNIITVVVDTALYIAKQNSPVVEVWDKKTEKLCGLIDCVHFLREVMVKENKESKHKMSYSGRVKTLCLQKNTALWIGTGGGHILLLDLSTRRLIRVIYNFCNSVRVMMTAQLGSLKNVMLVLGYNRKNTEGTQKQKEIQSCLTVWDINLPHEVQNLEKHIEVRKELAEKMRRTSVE
Protocol: as §1, §2, §3, §4, §5

Chain of LRRK2 G2019S (Q5S007 970-2527 G2019S): as the sequence (Q5S007 970-2527) above, with G1050S counted along it

Compound	pIC50 [1]	pIC50 [2]
CC(C)c1nnc(-c2cc(-c3ccc4[nH]ccc4c3)cnc2N)o1 [Example 1, 5-(1H-Indol-5-yl)-3-(5-isopropyl-[1,3,4]oxadiazol-2-yl)-pyridin-2-ylamine]	6.04	–
Nc1ncc(-c2ccc3[nH]ccc3c2)cc1-c1nnc(C2CC2)o1 [Example 2, 3-(5-Cyclopropyl-[1,3,4]oxadiazol-2-yl)-5-(1H-indol-5-yl)-pyridin-2-ylamine]	6.00	6.24
CN1CCc2cc(-c3cnc(N)c(-c4nnc(C5CC5)o4)c3)ccc21 [Example 3, 3-(5-Cyclopropyl-[1,3,4]oxadiazol-2-yl)-5-(1-methyl-2,3-dihydro-1H-indol-5-yl)-pyridin-2-ylamine]	6.15	6.01
Cc1ccc(-c2cnc(N)c(-c3nnc(C4CCN(C)CC4)o3)c2)cc1 [Example 4, 3-[5-(1-Methyl-piperidin-4-yl)-[1,3,4]oxadiazol-2-yl]-5-p-tolyl-pyridin-2-ylamine]	6.07	5.44
CN1CCc2cc(-c3cnc(N)c(-c4nnc(C5CCNCC5)o4)c3)ccc21 [Example 5, 5-(1-Methyl-2,3-dihydro-1H-indol-5-yl)-3-(5-piperidin-4-yl-[1,3,4]oxadiazol-2-yl)-pyridin-2-ylamine]	6.42	5.66
Nc1ncc(-c2ccc(CN3CCOCC3)cc2)cc1-c1nnc(C2CC2)o1 [Example 6, 3-(5-Cyclopropyl-[1,3,4]oxadiazol-2-yl)-5-(4-morpholin-4-ylmethyl-phenyl)-pyridin-2-ylamine]	6.41	6.31
COc1cccc(-c2cnc(N)c(-c3nnc(C4CCNCC4)o3)c2)c1 [Example 7, 5-(3-Methoxy-phenyl)-3-(5-piperidin-4-yl-[1,3,4]oxadiazol-2-yl)-pyridin-2-ylamine]	6.00	5.48
COc1cccc(-c2cnc(N)c(-c3nnc(C4CCN(C)CC4)o3)c2)c1 [Example 8, 5-(3-Methoxy-phenyl)-3-[5-(1-methyl-piperidin-4-yl)-[1,3,4]oxadiazol-2-yl]-pyridin-2-ylamine]	6.06	5.66
CC(C)n1cc(-c2cc(-c3ccc4c(ccn4C)c3)cnc2N)nn1 [Example 9, 3-(1-Isopropyl-1H-[1,2,3]triazol-4-yl)-5-(1-methyl-1H-indol-5-yl)-pyridin-2-ylamine]	6.27	6.26
CC(C)n1cc(-c2cc(-c3ccc4c(c3)CCN4C)cnc2N)nn1 [Example 10, 3-(1-Isopropyl-1H-[1,2,3]triazol-4-yl)-5-(1-methyl-2,3-dihydro-1H-indol-5-yl)-pyridin-2-ylamine]	6.46	6.21
CC(C)n1cc(-c2nc(-c3ccc4c(c3)CCN4C)cnc2N)nn1 [Example 11, 3-(1-Isopropyl-1H-[1,2,3]triazol-4-yl)-5-(1-methyl-2,3-dihydro-1H-indol-5-yl)-pyrazin-2-ylamine]	6.47	6.24
CC(C)n1cc(-c2cc(-c3ccc(CN4CCOCC4)cc3)cnc2N)nn1 [Example 12, 3-(1-Isopropyl-H-[1,2,3]triazol-4-yl)-5-(4-morpholin-4-ylmethyl-phenyl)-pyridin-2-ylamine]	6.80	6.52
CC(C)n1cc(-c2cc(-c3ccc(N4CCOCC4)cc3)cnc2N)nn1 [Example 13, 3-(1-Isopropyl-1H-[1,2,3]triazol-4-yl)-5-(4-morpholin-4-yl-phenyl)-pyridin-2-ylamine]	6.55	6.47
CC(C)n1cc(-c2cc(-c3ccc(CCN4CCOCC4)cc3)cnc2N)nn1 [Example 14, 3-(1-Isopropyl-1H-[1,2,3]triazol-4-yl)-5-[4-(2-morpholin-4-yl-ethyl)-phenyl]-pyridin-2-ylamine]	6.47	6.22
CC(C)n1cc(-c2cc(-c3ccc(CN4CCOCC4)c(F)c3)cnc2N)nn1 [Example 15, 5-(3-fluoro-4-(morpholinomethyl)phenyl)-3-(1-isopropyl-1H-1,2,3-triazol-4-yl)pyridin-2-amine]	6.43	6.70
CC(C)n1cc(-c2cc(-c3ccc(C(=O)N4CCOCC4)c(F)c3)cnc2N)nn1 [Example 16, (4-(6-amino-5-(1-isopropyl-1H-1,2,3-triazol-4-yl)pyridin-3-yl)-2-fluorophenyl)(morpholino)methanone]	6.29	6.24
COc1cc(-c2cnc(N)c(-c3cn(C(C)C)nn3)c2)ccc1C(=O)N1CCOCC1 [Example 17, [4-[6-amino-5-(1-isopropyltriazol-4-yl)-3-pyridyl]-2-methoxy-phenyl]-morpholino-methanone]	7.02	7.04
COc1cc(-c2cnc(N)c(-c3cn(C(C)C)nn3)c2)ccc1CN1CCOCC1 [Example 18, 3-(1-isopropyltriazol-4-yl)-5-[3-methoxy-4-(morpholinomethyl)phenyl]pyridin-2-amine]	7.07	7.03
CC(C)n1cc(-c2cc(-c3ccc(F)c(CN4CCOCC4)c3)cnc2N)nn1 [Example 19, 5-[4-fluoro-3-(morpholinomethyl)phenyl]-3-(1-isopropyltriazol-4-yl)pyridin-2-amine]	6.06	6.00
Cc1cc(-c2cnc(N)c(-c3cn(C(C)C)nn3)c2)ccc1C(=O)N1CCOCC1 [Example 20, [4-[6-amino-5-(1-isopropyltriazol-4-yl)-3-pyridyl]-2-methyl-phenyl]-morpholino-methanone]	6.96	7.00
Cc1cc(-c2cnc(N)c(-c3cn(C(C)C)nn3)c2)ccc1CN1CCOCC1 [Example 21]	6.62	6.59
CC(C)n1cc(-c2cc(-c3ccc(C(=O)N4CCOCC4)c(Cl)c3)cnc2N)nn1 [Example 22, [4-[6-amino-5-(1-isopropyltriazol-4-yl)-3-pyridyl]-2-chloro-phenyl]-morpholino-methanone]	6.54	6.54
CC(C)n1cc(-c2cc(-c3ccc(CN4CCOCC4)c(Cl)c3)cnc2N)nn1 [Example 23, 5-[3-Chloro-4-(morpholinomethyl)phenyl]-3-(1-isopropyltriazol-4-yl)pyridin-2-amine]	6.66	6.49
CC(C)n1cc(-c2cc(-c3cccc(CN4CCOCC4)c3)cnc2N)nn1 [Example 24, 3-(1-Isopropyltriazol-4-yl)-5-[3-(morpholinomethyl)phenyl]pyridin-2-amine]	6.30	6.43
CC(C)n1cc(-c2cc(-c3cccc(C(=O)N4CCOCC4)c3)cnc2N)nn1 [Example 25, [3-[6-Amino-5-(1-isopropyltriazol-4-yl)-3-pyridyl]phenyl]-morpholino-methanone]	6.02	6.19
CC(C)n1cc(-c2cc(-c3cc(Cl)cc(C(=O)N4CCOCC4)c3)cnc2N)nn1 [Example 26, [3-[6-Amino-5-(1-isopropyltriazol-4-yl)-3-pyridyl]-5-chloro-phenyl]-morpholino-methanone]	6.16	6.31
CC(C)n1cc(-c2cc(-c3ccc(C(=O)N4CCOCC4)cc3)cnc2N)nn1 [Example 28, [4-[6-Amino-5-(1-isopropyltriazol-4-yl)-3-pyridyl]phenyl]-morpholino-methanone]	6.37	6.43
CC(C)n1cc(-c2cc(-c3ccc(CC(=O)N4CCOCC4)cc3)cnc2N)nn1 [Example 30, 2-[4-[6-amino-5-(1-isopropyltriazol-4-yl)-3-pyridyl]phenyl]-1-morpholino-ethanone]	6.28	6.17
